Measured values as given in publication PMC7990796, “Efficacy of a Combined Antiplatelet Therapy Is Not Affected by a Simultaneous Binding of Cangrelor and PSB 0777 to Albumin” (Frontiers in Pharmacology, 2021).
Where two headings read alike, the source gives them in different places.

Legend:
human serum albumin [1] = biological target: T1, human serum albumin (Homo sapiens, UniProt P02768); assay: Fluorescence quenching of HSA (Stern-Volmer, saturation binding, van't Hoff analysis); settings: for Number of binding sites n / Kd: mean [95% CI]; for KA: KA = 1/KD; for decrease of HSA fluorescence: 2.5 µM HSA; for ΔH^θ / ΔS^θ: van't Hoff plot, 292, 302, 312 K
Experimental: The fluorescence measurements for albumin-drug complexes were performed using a LS50B spectrofluorometer (Perkin Elmer, Waltham, MA, United States) equipped with 1.0 cm quartz cell. […] The slit widths for excitation and emission beams were set to 5 and 10 nm, respectively. The Perkin-Elmer FL WinLab software v. 4.00.03 was used to collect the measured data. An appropriate buffer blank spectrum was subtracted from the measured spectra for fluorescence background correction. […] In consequence, the albumin fluorescence was not corrected for the inner filter effect. All measurements, except a thermodynamic analysis of the binding of antiplatelet compounds to HSA were performed at 25°C after 30 s incubation of a sample with the examined compound. Stock and working solutions of all compounds used in the experiments were prepared in PBS buffer, pH 7.4.
To obtain the binding parameters: dissociation constant (KD) and the number of binding sites per protein molecule (n), the experimental data were fit to a saturation binding curve using nonlinear regression analysis.
The free energy change was estimated from the following relationship Eq. 4: ΔG^θ=ΔH^θ−TΔS^θ (4)

human serum albumin [2] = biological target: T1, human serum albumin; parameters: purchased Sigma (St. Louis, MO, United States); method as in Boncler et al., 2018; Wzorek et al., 2020; settings: SPR; ref Boncler et al., 2018; Wzorek et al., 2020; read-out: affinity of binding to HSA (SPR); cited from earlier work
human serum albumin [3] = biological target: T1, human serum albumin; assay: Fluorescence quenching of HSA in the presence of a competitor (warfarin or cangrelor); format: binding; parameters: purchased Sigma (St. Louis, MO, United States); settings: for Kd: mean [95% CI], n = 5–6
Experimental: (§1) The fluorescence measurements for albumin-drug complexes were performed using a LS50B spectrofluorometer (Perkin Elmer, Waltham, MA, United States) equipped with 1.0 cm quartz cell. The fluorescence spectra for HSA solution (2.5 µM in 0.1 M phosphate buffer, pH 7.4) were recorded in the range of wavelength from 250 to 500 nm, with the excitation at 280 nm and the emission set at 350 nm. The slit widths for excitation and emission beams were set to 5 and 10 nm, respectively. The Perkin-Elmer FL WinLab software v. 4.00.03 was used to collect the measured data. An appropriate buffer blank spectrum was subtracted from the measured spectra for fluorescence background correction. The optical density of HSA solution was below 0.1 and within the albumin concentration range of 0‐2.5 µM we observed a linear relationship between protein concentration and fluorescence intensity (p < 0.0001, R^2 = 0.995). In consequence, the albumin fluorescence was not corrected for the inner filter effect. All measurements, except a thermodynamic analysis of the binding of antiplatelet compounds to HSA were performed at 25°C after 30 s incubation of a sample with the examined compound. Stock and working solutions of all compounds used in the experiments were prepared in PBS buffer, pH 7.4. The protein concentration was determined by BCA method ([Smith et al., 1985]).
[…]. [Chaves et al., 2018]; [Manjushree and Revanasiddappa, 2019]). […].
Furthermore, to determine whether one antiplatelet compound could be displaced from HSA by the other, the binding site marker experiments were repeated, i.e. by titration of HSA with PSB 0777 (0‒38.5 µM) in the presence of 2.5 µM cangrelor, instead of a marker.

human serum albumin [4] = biological target: T1, human serum albumin; assay: Synchronous fluorescence spectra of HSA; format: binding; parameters: purchased Sigma (St. Louis, MO, United States); settings: 0‒38.5 μM
Experimental: as §1
To monitor changes in the polarity around the tyrosine and tryptophan residues of HSA evoked by the examined compounds, the synchronous fluorescence spectra of HSA (Δλ 15 nm and Δλ 60 nm) were recorded in the presence of increasing concentrations of PSB 0777 and cangrelor (0‒38.5 μM with 4 μM intervals).

[5] = tested on: platelets (platelet-rich plasma, isolated platelets); assay: Inhibition of ADP-induced platelet activation (P-selectin/CD62P expression, flow cytometry); format: cell-based, human; settings: 17 nM, 10 μM ADP; for decrease of ADP-dependent platelet activation: n = 5; for inhibition at 0.017 µM: Homo sapiens, Platelet, n = 6
Experimental: Human blood was obtained from consecutively recruited healthy volunteers (simple random non-stratified sampling): four men and seven women; mean age 25 ± 5 years. All individuals provided their written informed consent to participate in the study. The exclusion criteria were the same as described previously ([Wzorek et al., 2020]). The study was approved by the Human Studies Committee of the Medical University of Lodz (Poland) and was conducted in accordance with the guidelines established by the Declaration of Helsinki. Whole blood was collected into polypropylene tubes with a blood-to-acid citrate dextrose solution (ACD) ratio of 6:1 (vol:vol).
Human platelet-rich plasma (PRP) was prepared by centrifuging of anticoagulated whole blood at 190 x g for 12 min at 37°C. Platelet-poor plasma (PPP) was prepared by centrifuging the whole blood fraction left after removal of the PRP at 2500 x g for 12 min at 37°C. Platelet count in PRP was measured with automated haematology analyzer Sysmex XS-800i™ (Sysmex, Kobe, Japan) and adjusted to 1 × 10^8 cells per ml.
Suspensions of isolated platelets were obtained from PRP separated from anticoagulated whole blood containing 50 ng/ml PGE1. PRP was centrifuged at 800 x g for 15 min at 37°C to obtain a platelet pellet. Platelet pellet was immediately suspended in the Tyrode buffer (134 mM NaCl, 12 mM NaHCO3, 2.9 mM KCl, 0.34 mM Na2HPO4, 1 mM MgCl2, 10 mM HEPES, 5 mM glucose, pH 7.4) and diluted to a count 1 × 10^8 per ml, as described above.
The effect of plasma or HSA on inhibition of platelet activation by cangrelor was assessed by two-colour flow cytometry with the use of anti-CD61/PerCP (for platelet gating) and anti-CD62/PE (for detection of activated platelets). The antiplatelet activity of cangrelor was evaluated in PRP and suspensions of isolated platelets, when the effect of plasma was examined, or in isolated platelets containing 4% HSA, when the effect of albumin was studied. […] The activated platelets were stained with antibodies prior to fixation as described previously ([Wzorek et al., 2020]). A total of 10,000 events were acquired in each experiment using a FACSCanto II flow cytometer and surface expression of CD62P (P-selectin) in platelets was analysed using FACS/Diva v. 6.0 software (Becton-Dickinson, Franklin Lakes, NJ, United States).

[6] = tested on: platelet function in whole blood; parameters: method as in Boncler et al., 2018; settings: ref Boncler et al., 2018; cited from earlier work
human serum albumin [7] = biological target: T1, human serum albumin; assay: Surface plasmon resonance binding to immobilized HSA (Biacore X)
Experimental: Briefly, 100 µg of HSA was dissolved in 1 ml of 10 mM sodium acetate buffer, pH 4.0, and immobilized on the flow cell 1 of the sensor chip surface. No protein was immobilized on the flow cell 2, which was used as a control. […] The curves from three independent experiments were analyzed by global curve fitting of the entire data set using the Langmuir binding model with the BIAevaluation 4.1.1 software (Biacore AG, Uppsala, Sweden).

HSA = settings: 2005, cited from earlier work
[8] = concentration range 0–5 μM, 25°C
[9] = highest drug concentration 38.5 µM, n = 3

T1 sequence (P02768 25-609): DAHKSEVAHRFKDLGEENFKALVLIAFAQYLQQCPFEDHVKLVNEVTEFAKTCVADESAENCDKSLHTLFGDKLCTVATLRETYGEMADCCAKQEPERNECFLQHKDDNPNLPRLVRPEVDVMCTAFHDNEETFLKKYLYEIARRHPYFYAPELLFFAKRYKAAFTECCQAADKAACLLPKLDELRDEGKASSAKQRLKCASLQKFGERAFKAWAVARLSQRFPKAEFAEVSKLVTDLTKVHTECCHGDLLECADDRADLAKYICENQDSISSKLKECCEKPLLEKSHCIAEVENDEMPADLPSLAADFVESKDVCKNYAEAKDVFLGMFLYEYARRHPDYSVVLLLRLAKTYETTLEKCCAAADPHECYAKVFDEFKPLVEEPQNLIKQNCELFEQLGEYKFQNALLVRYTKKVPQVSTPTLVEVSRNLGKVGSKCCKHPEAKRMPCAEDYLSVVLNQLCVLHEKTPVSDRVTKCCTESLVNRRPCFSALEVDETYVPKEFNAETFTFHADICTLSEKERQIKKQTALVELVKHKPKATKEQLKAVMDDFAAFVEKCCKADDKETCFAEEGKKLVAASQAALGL

For `Nc1nc(SCCc2ccc(S(=O)(=O)O)cc2)nc2c1ncn2[C@@H]1O[C@H](CO)[C@@H](O)[C@H]1O` [PSB 0777], the “Number of binding sites n” value (human serum albumin [1]; 0‒38.5 µM, n = 3) was 0.83 [−0.22 to 1.87], the “ΔG^θ” value (human serum albumin [1]; 292 K) was -6.551 kcal/mol and the “ΔG^θ” value (human serum albumin [1]; 302 K) was -6.733 kcal/mol. For the same molecule, the KA (human serum albumin [1]; 302 K) was 6.43 [−5.24 to 1.99] × 10^4 [M^−1], the “ΔG^θ” value (human serum albumin [1]; 312 K) was -6.917 kcal/mol and the KA (human serum albumin [1]; 312 K) was 7.50 [−0.90 to 3.91] × 10^4 [M^−1]. For the same molecule, the “decrease of HSA fluorescence” value (human serum albumin [1]; [8]) was 25%, the “decrease of HSA fluorescence” value (human serum albumin [1]; [9]) was 70% and the “ΔH^θ” value (human serum albumin [1]) was -1.21 kcal/mol. The “ΔS^θ” value (human serum albumin [1]) was 76.49 J/mol * K, the Kd (human serum albumin [2]) was 80.6 µM and the “increase of dissociation constant in the presence of competitor compared to control” value (“increase of dissociation constant” below) (human serum albumin [3]; competitor cangrelor) was 1.2 fold. For the same molecule, the n with competitor (human serum albumin [3]; competitor cangrelor 2.5 µM) was 0.65 [0.39‒0.92], the “increase of dissociation constant” value (human serum albumin [3]; competitor warfarin) was 1.4 fold and the n with competitor (human serum albumin [3]; competitor warfarin 2.5 µM) was 0.59 [0.19‒0.99]. The n without competitor (human serum albumin [3]; control of the cangrelor series) was 0.61 [0.32‒0.89], the n without competitor (human serum albumin [3]; control of the warfarin series) was 0.69 [0.51‒0.88] and the “mean red shift of emission peak” value (human serum albumin [4]; Δλ 15 nm (tyrosine)) was 0.5 nm. The “mean red shift of emission peak” value (human serum albumin [4]; Δλ 60 nm (tryptophan)) was 0.8 nm.
With `CSCCNc1nc(SCCC(F)(F)F)nc2c1ncn2[C@@H]1O[C@H](COP(=O)(O)OP(=O)(O)C(Cl)(Cl)P(=O)(O)O)[C@@H](O)[C@H]1O` [cangrelor] the “Number of binding sites n” value (human serum albumin [1]; 0‒38.5 µM, n = 3) was 0.99 [−0.29 to 2.27], the “ΔG^θ” value (human serum albumin [1]; 292 K) was -6.522 kcal/mol and the “ΔG^θ” value (human serum albumin [1]; 302 K) was -6.812 kcal/mol. For the same molecule, the KA (human serum albumin [1]; 302 K) was 10.31 [0.20‒6.97] × 10^4 [M^−1], the “ΔG^θ” value (human serum albumin [1]; 312 K) was -7.101 kcal/mol and the KA (human serum albumin [1]; 312 K) was 8.47 [0.19‒5.45] × 10^4 [M^−1]. For the same molecule, the Kd (human serum albumin [1]; 0‒38.5 µM, nonlinear regression, n = 3) was 10.9 µM, the Kd (human serum albumin [1]; 292 K, n = 3) was 14.5 µM and the Kd (human serum albumin [1]; 302 K, n = 3) was 9.7 µM. For the same molecule, the Kd (human serum albumin [1]; 312 K, n = 3) was 11.8 µM, the “decrease of HSA fluorescence” value (human serum albumin [1]; [8]) was 40% and the “decrease of HSA fluorescence” value (human serum albumin [1]; [9]) was 75%. For the same molecule, the “ΔH^θ” value (human serum albumin [1]) was 1.93 kcal/mol, the “ΔS^θ” value (human serum albumin [1]) was 121.01 J/mol * K and the “decrease of ADP-dependent platelet activation” value ([5]; isolated platelets (compared with PRP)) was 95%. For the same molecule, the “decrease of ADP-dependent platelet activation” value ([5]; platelet-rich plasma) was 77%, the inhibition at 0.017 µM ([5]; control isolated platelets without HSA) was 97% and the inhibition at 0.017 µM ([5]; isolated platelets with 4% HSA) was 74%. The “increase of dissociation constant” value (human serum albumin [3]; competitor warfarin) was 2 fold, the n with competitor (human serum albumin [3]; competitor warfarin 2.5 µM) was 1.39 [−0.07 to 2.85] and the Kd (human serum albumin [3]; competitor warfarin 2.5 µM, read-out: KD with competitor) was 16.8 µM. The n without competitor (human serum albumin [3]; control of the warfarin series) was 1.10 [0.67‒1.52], the Kd (human serum albumin [3]; control of the warfarin series, read-out: KD without competitor) was 8.3 µM and the “mean red shift of emission peak” value (human serum albumin [4]; Δλ 15 nm (tyrosine)) was 0.3 nm. The “mean red shift of emission peak” value (human serum albumin [4]; Δλ 60 nm (tryptophan)) was 2.1 nm, the IC50 [6] was 0.017 µM and the Kd (human serum albumin [7]; KA (equilibrium association constant), obtained from the binding rate constants) was 16.3 µM. It also gave a koff (human serum albumin [7]; human, pH 7.4) of 0.0573 ± 0.000323 s⁻¹ and a kon (human serum albumin [7]; human, pH 7.4) of 2820 ± 1.4e+06 M⁻¹ s⁻¹.
For `CC(C)Cc1ccc(C(C)C(=O)O)cc1` (centres unmarked) [ibuprofen], the “KA (binding constant) reported earlier” value (HSA; used in the racemic form, ref Dufour and Dangles) is listed as 10^5–10^6 M^−1.
In the case of `CC(=O)CC(c1ccccc1)c1c(O)c2ccccc2oc1=O` (centres unmarked) [warfarin], the KA reported earlier (HSA; ref Yamasaki et al., 1996, Watanabe et al., 2001, Dufour and Dangles) is given as 10^4–10^5 M^−1.
